From patent US10202604B2, “Methods of using microRNA-141” (Stemirna Therapeutics Co., Ltd., priority 2016, dated 2019)

Experiments:
CDC42 = experiment: Rho family GTPase activity assay (G-LISA); type: cell-based, human; conditions: Du145 cells, Lenti-141 MOI 10, 48 h
Protocol: (§1) Du145 cells transfected with NC or miR-141 oligos at the two doses and time intervals indicated were used in Western blotting. Indicated below are relative expression levels (normalized to respective GAPDH and compared to NC) of each protein determined by densitometric scanning of the individual bands. […] Bars, mean±SD. *P<0.05; **P<0.01. […] Du145 cells were co-transfected with NC or miR-141 oligos (30 nM) in combination with pcDNA3.1 (control) vector or pcDNA-RAC1 or pcDNA-CDC42 expression vector. After 48 h, cells were harvested for invasion assays. […] Du145 cells were infected with Lenti-141 or control lentivirus (MOI 10, 48 h) and then harvested to measure the Rho GTPase activities. Bars, mean±SD. *P<0.05. […] Du145 cells were transfected with the antisense oligos to NC or miR-141 (anti-141; 30 nM) and then used in invasion assays (FIG. 5E). In FIG. 5F and FIG. 5G Du145 cells were transfected with 10 nM of scramble siRNA control (siCon) or siRNAs targeting RAC1 (FIG. 5F) or CDC42 (FIG. 5G), either alone or in combination of anti-141 (30 nM). 48 h later, cells were harvested for invasion assays. Bars, mean±SD. *P<0.05; **P<0.01.
(§2) The activity of Rho family of small GTPases including RhoA, RAC1 and CDC42 were detected using G-LISA small G-protein activation assays per the manufacturer's instructions (Cytoskeleton, Inc., Denver, Colo.; catalog# BK135).

RhoA = experiment: Rho family GTPase activity assay (G-LISA); type: cell-based, human; conditions: Du145 cells, Lenti-141 MOI 10, 48 h
Protocol: as §1, §2

RAC1 = experiment: Rho family GTPase activity assay (G-LISA); type: cell-based, human; conditions: Du145 cells, Lenti-141 MOI 10, 48 h
Protocol: as §1, §2

EZH2 = EZH2 mRNA and protein levels; type: cell-based, human
Protocol: FIG. 6A: Putative binding site of miR-141 in EZH2 3′-UTR. […] FIG. 6C is a qPCR analysis of EZH2 mRNA levels in CD44^+ PCa cells. Bars, mean±SD. *P<0.05; **P<0.01. […] Bars, mean±SD. **P<0.01. […] Western blotting was performed in PC3 and Du145 cells transfected with NC (60 nM) or miR-141 (30 or 60 nM) oligos (72 h). Relative protein levels were measured by densitometry and normalized to GAPDH levels (indicated below). […] Du145 cells plated one day before were treated with 1, 2, and 5 μM of DZNep for 96 h and then cells were harvested for invasion assays. **P<0.01. Inset, WB showing reduced EZH2 proteins by DZNep. […] Du145 cells were transfected with 10 nM scramble siRNA (siCon) or EZH2-targeting siRNAs (siEZH2) or siEZH2 plus anti-miR-141 (30 nM). 48 h later, cells were harvested for invasion assays. Bars, mean±SD. **P<0.01. […] Du145 cells were co-transfected with 30 nM NC or miR-141 oligos together with empty vector or pCMV-EZH2 construct. After 48 h, cells were harvested for invasion assay. Bars, mean±SD. **P<0.01.
Total RNA was extracted using microRNA isolation kit (Life Technologies) according to the manufacturer's instructions. microRNA qPCRs were performed using TaqMan microRNA assays (Life Technologies). qPCR data for microRNAs were normalized to RNU48 whereas qPCR data for mRNAs were normalized to GAPDH.
For Boyden Chamber invasion assays, Biocoat Matrigel Invasion Chamber (BD, Franklin Lakes, N.J.) was employed following the manufacturer's instructions. Briefly, 100,000-200,000 of prostate cancer cells after transfection with […]/miR-141 oligos or infection with miR-141 over-expressing lentivirus were seeded into each well. Medium with 20% fetal bovine serum was used in the lower chamber as chemo-attractant. After 20 h, cells were fixed and stained using HEMA stain. Representative images were taken for each membrane and cells were counted. Migration assays were simultaneously performed in control wells using identical protocol with Transwell (Costar; 8 μl PET) without Matrigel. […]

[1] = test system: CD44+ and bulk human prostate cancer (HPCa) cells freshly purified from patient tumors; experiment: Clonal and sphere formation assays, primary patient cells; type: cell-based
Protocol: Average % of CD44^+ cells (as determined by flow analysis; n=3-5) is indicated for each cell type (UD, undetectable). […] Purified CD44^+ Du145 cells were transfected with NC or miR-141 oligos (30 nM, 48 h) and then plated for clonal (1D & 1E) and sphere (1F) assays. Bars represent mean±SD. *, P<0.05; **, P<0.01. […] Shown are tumor images, cell numbers injected (100,000 cells per injection for all models), site of injection (s.c, subcutaneously) and days (d) when tumors were harvested. Tumor weight and incidences with corresponding P values are also indicated. ns, not significant. […] For 1st generation (1°) sphere assays, 1,000 cells per well were plated in triplicate for each group in 12-well plate and results scored in 11 days. For 2nd generation (2°), the 1° spheres were harvested, digested with Collagenase and Trypsin into single cells, 1,000 cells/well were plated, and results scored in 10 days. Quantification of the colonies was plotted (1 L; **P<0.01). […]
For clonal assays, cultured prostate cancer cells or human prostate cancer cells freshly purified from patient primary tumors were plated at a clonal density (i.e., 100 cells/well) in a 6-well plate. The number of holoclones (33) was counted several days later. […] Floating spheres that arose in 1-2 weeks were counted. […]

miR-141: miR-141 mirVana mimics (Life Technologies); microRNA-141 oligonucleotide may have SEQ ID NO: 1; in some experiments over-expressed by lentiviral vectors (UAACACUGUCUGGUAAAGAUGG; listed as RNA, further chemistry not given here) [miR-141 mirVana mimics (Life Technologies); in some experiments over-expressed by lentiviral vectors]
GTPase activity of CDC42 (CDC42): suppressed
GTPase activity of RhoA (RhoA): not
GTPase activity of RAC1 (RAC1): suppressed
EZH2 RNA level (EZH2; miR-141 overexpression in prostate cancer cells): significantly reduced
EZH2 protein level (EZH2; miR-141 overexpression, PC3 and Du145, 30 or 60 nM, 72 h): significantly reduced
clonal growth ([1]; miR-141 overexpression (Lenti-141 MOI 10, 72 h)): inhibited
serial sphere formation ([1]; miR-141 overexpression, CD44+ and bulk HPCa cells, 1st and 2nd generation spheres in Matrigel): inhibited
